According to publication PMC7080599 (European journal of nuclear medicine and molecular imaging, 2019):

Molecular target: T1, lymphokine-activated killer T-cell-originated protein kinase (TOPK) (Homo sapiens, UniProt Q96KB5)
T1 sequence (Q96KB5 1-322): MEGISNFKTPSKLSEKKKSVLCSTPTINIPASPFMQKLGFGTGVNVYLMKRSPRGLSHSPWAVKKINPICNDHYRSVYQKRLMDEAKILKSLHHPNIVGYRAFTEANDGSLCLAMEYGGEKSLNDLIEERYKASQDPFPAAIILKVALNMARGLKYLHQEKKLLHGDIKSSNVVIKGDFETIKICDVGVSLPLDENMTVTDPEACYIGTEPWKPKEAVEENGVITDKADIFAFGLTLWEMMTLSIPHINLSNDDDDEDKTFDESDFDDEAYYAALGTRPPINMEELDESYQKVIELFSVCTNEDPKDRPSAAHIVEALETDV
Experiment: in vitro TOPK kinase assay
Format: biochemical

Work on `Cc1cc(O)c(-c2ccc([C@@H](C)CNc3ccc([N+](=O)[O-])c4nonc34)cc2)c2c1[nH]c(=O)c1sccc12` [TOPKi-NBD, (R)-8-hydroxy-6-methyl-9-(4-(1-((7-nitrobenzo[c][1,2,5]oxadiazol-4-yl)amino)propan-2-yl)phenyl)thieno[2,3-c]quinolin-4(5H)-one] yielded an EC50 of 490 ± 170 nM.
